Laboratory results as given in patent US20230117592A1 (SRI International, priority 2019, published 2023).
“And” between values parts separate entries of the source, which are not always exact repeats. Identical values can stand only once.

Experiments:
[1] = biological target: T1, 12-LOX (Homo sapiens, UniProt P18054); assay: 12-LOX fluorescent assay (in vitro lipoxygenase inhibition); type: biochemical; settings: 100 nM recombinant 12-LOX, 20 μM AA, DHR123 fluorescence; several values in a cell = repeat determinations; read-out: IC50 (μM) values for in vitro lipoxygenase inhibition, 12-LOX
T1 sequence (P18054 1-663): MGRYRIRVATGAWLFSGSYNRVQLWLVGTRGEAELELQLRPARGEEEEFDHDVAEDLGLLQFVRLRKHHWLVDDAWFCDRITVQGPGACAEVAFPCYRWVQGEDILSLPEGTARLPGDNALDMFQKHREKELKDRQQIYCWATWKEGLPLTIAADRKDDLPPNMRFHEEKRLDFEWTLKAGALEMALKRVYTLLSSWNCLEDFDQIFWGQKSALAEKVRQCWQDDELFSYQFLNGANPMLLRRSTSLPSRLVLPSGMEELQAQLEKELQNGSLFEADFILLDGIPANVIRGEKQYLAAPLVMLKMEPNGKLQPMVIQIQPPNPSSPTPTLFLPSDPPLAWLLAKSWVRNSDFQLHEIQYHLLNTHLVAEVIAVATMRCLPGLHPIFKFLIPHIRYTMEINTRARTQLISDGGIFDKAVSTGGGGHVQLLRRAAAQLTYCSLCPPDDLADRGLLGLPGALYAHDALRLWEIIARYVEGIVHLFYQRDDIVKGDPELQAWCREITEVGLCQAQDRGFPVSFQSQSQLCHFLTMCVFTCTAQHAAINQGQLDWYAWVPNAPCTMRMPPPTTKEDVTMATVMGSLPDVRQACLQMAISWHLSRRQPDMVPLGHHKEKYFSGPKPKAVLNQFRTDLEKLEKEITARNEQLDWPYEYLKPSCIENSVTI
Procedure, shortened: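 Fluorescent assay in 50 mM Tris pH 7.5, 0.05% Tween-20, with 100 nM recombinant 12-LOX preincubated 15 min with inhibitor. Reaction was started with 20 μM arachidonic acid substrate and 1 μM DHR123. Percent inhibition per dose was fitted by 4-parameter logistic or sigmoidal dose-response for IC50.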

[2] = biological target: T2, 5-LOX (Homo sapiens, UniProt P09917); assay: 5-LOX fluorescent assay (in vitro lipoxygenase inhibition); type: biochemical; settings: recombinant 5-LOX cell lysate, 20 μM AA, DHR123 fluorescence; several values in a cell = repeat determinations; read-out: IC50 (μM) values for in vitro lipoxygenase inhibition, 5-LOX
T2 sequence (P09917 1-674): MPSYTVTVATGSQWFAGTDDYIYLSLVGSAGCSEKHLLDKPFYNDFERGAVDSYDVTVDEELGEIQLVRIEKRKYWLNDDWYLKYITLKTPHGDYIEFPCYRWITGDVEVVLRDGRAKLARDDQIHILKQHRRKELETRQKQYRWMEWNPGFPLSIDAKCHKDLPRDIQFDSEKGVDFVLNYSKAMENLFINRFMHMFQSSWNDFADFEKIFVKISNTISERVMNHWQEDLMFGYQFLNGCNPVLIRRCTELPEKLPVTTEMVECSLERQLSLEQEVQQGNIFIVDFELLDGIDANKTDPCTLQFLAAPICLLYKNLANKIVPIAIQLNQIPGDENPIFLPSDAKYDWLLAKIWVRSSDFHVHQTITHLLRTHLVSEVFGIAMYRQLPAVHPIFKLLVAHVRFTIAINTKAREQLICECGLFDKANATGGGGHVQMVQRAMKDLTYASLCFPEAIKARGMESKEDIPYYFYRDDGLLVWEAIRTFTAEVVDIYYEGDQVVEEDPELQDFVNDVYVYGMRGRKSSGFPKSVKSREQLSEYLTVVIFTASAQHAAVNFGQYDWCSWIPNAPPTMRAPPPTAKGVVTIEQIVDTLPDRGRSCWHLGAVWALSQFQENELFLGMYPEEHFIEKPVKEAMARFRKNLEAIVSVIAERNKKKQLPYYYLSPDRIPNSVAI
Procedure, shortened: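 Recombinant human 5-LOX cell lysate pre-incubated 15 min with inhibitor in 50 mM Tris pH 7.5, 0.1 mM EDTA, 0.3 mM CaCl2. Reaction started with 20 μM arachidonic acid plus 100 μM ATP, with 1 μM DHR123 as fluorescent probe. IC50 from percent inhibition per dose via 4-parameter logistic or sigmoidal dose-response fit.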

| Compound | IC50 [1] | IC50 [2] |
| --- | --- | --- |
| CN(CCn1cncn1)c1cccc(Nc2ccc(F)cc2)c1 [SS20308-0252-01, N^1-(2-(1H-1,2,4-triazol-1-yl)ethyl)-N^3-(4-fluorophenyl)-N^1-methylbenzene-1,3-diamine] | 0.26 µM | 1.09 µM |
| CN(C)CCCc1c(NCc2ccc(F)cc2)cccc1-c1cccc2c1NCC2 [SS20308-0253-01, 2-(3-(dimethylamino)propyl)-N-(4-fluorobenzyl)-3-(indolin-7-yl)aniline] | 0.29 µM | 0.31 µM |
| FC1(F)CCC(Nc2ccc(NCC3(Cn4cncn4)COC3)cc2)CC1 [SS20308-0263-01, N^1-((3-((1H-1,2,4-triazol-1-yl)methyl)oxetan-3-yl)methyl)-N^4-(4,4-difluorocyclohexyl) benzene-1,4-diamine] | 0.06 µM and 0.03 µM | 0.22 µM and 0.12 µM |
| Cc1cc(Nc2ccc(F)cc2Cl)ccc1NCC1(Cn2cncn2)COC1 [SS20308-0272-01, N1-((3-((1H-1,2,4-triazol-1-yl)methyl)oxetan-3-yl)methyl)-N4-(2-chloro-4-fluorophenyl)-2-methylbenzene-1,4-diamine] | 30 nM and 80 nM and 60 nM (2×) | 0.22 µM and 0.28 µM and 0.11 µM and 0.26 µM |
| CC1(C)CC(Nc2ccc(NCCn3cncn3)cc2)c2ccccc21 (stereo not drawn) [SS20308-0275-01, N^1-(2-(1H-1,2,4-triazol-1-yl)ethyl)-N^4-(3,3-dimethyl-2,3-dihydro-1H-inden-1-yl)benzene-1,4-diamine] | 0.05 µM and 0.04 µM | 0.26 µM and 0.1 µM |
| Fc1ccc(Nc2ccc(NCC3(Cn4cncn4)COC3)c(C(F)(F)F)c2)c(Cl)c1 [SS20308-0279-01, N^1-((3-((1H-1,2,4-triazol-1-yl)methyl)oxetan-3-yl)methyl)-N^4-(2-chloro-4-fluorophenyl)-2-(trifluoromethyl)benzene-1,4-diamine] | 0.28 µM | 0.64 µM |
| Cc1cccc(Nc2ccc(NCC3(Cn4cncn4)COC3)c(C)c2)n1 [SS20308-0289-01, N^1-((3-((1H-1,2,4-triazol-1-yl)methyl)oxetan-3-yl)methyl)-2-methyl-N^4-(6-methylpyridin-2-yl)benzene-1,4-diamine] | 0.07 µM and 0.15 µM | 0.25 µM and 0.61 µM |
| Fc1ccc(Nc2ccc(NCC3(Cn4cncn4)COC3)c(C(F)(F)F)c2)cc1 [SS20308-0296-01, N^1-((3-((1H-1,2,4-triazol-1-yl)methyl)oxetan-3-yl)methyl)-N^4-(4-fluorophenyl)-2-(trifluoromethyl)benzene-1,4-diamine] | 0.06 µM | 0.08 µM |
| CN(C)CCCNc1ccc(NC(c2ccccc2)C(F)(F)F)cc1F (stereo not drawn) [SS20308-0302-01, N^1-(3-(dimethylamino)propyl)-2-fluoro-N^4-(2,2,2-trifluoro-1-phenylethyl)benzene-1,4-diamine] | 0.21 µM | 0.25 µM |
| Cc1cc(Nc2ccc(F)c(Cl)c2)ccc1NCC1(Cn2cncn2)COC1 [SS20308-0307-01, N^1-((3-((1H-1,2,4-triazol-1-yl)methyl)oxetan-3-yl)methyl)-N^4-(3-chloro-4-fluorophenyl)-2-methylbenzene-1,4-diamine] | 0.02 µM and 0.06 µM | 0.05 µM and 0.06 µM |
| Cc1cc(Nc2ccc(Cl)c(F)c2)ccc1NCC1(Cn2cncn2)COC1 [SS20308-0308-01, N^1-((3-((1H-1,2,4-triazol-1-yl)methyl)oxetan-3-yl)methyl)-N^4-(4-chloro-3-fluorophenyl)-2-methylbenzene-1,4-diamine] | 20 nM (2×) and 50 nM and 60 nM | 0.04 µM and 0.03 µM and 0.05 µM and 0.09 µM |
| Cc1cc(Nc2ccc(F)cc2Cl)ccc1NCC1(CN2CCOCC2)COC1 [SS20308-0309-01, N^4-(2-chloro-4-fluorophenyl)-2-methyl-N^1-((3-(morpholinomethyl)oxetan-3-yl)methyl) benzene-1,4-diamine] | 0.04 µM and 0.08 µM | 0.09 µM and 0.12 µM |
| Fc1cc(Nc2ccccc2Cl)ccc1NCC1(Cn2cncn2)COC1 [SS20308-0313-01, N^1-((3-((1H-1,2,4-triazol-1-yl)methyl)oxetan-3-yl)methyl)-N^4-(2-chlorophenyl)-2-fluorobenzene-1,4-diamine] | 0.11 µM | 0.35 µM |
| FC(F)(F)C(Nc1ccc(NCCCN2CCOCC2)c(C2CCOCC2)c1)c1ccccc1 (stereo not drawn) [SS20308-0315-01, N^1-(3-morpholinopropyl)-2-(tetrahydro-2H-pyran-4-yl)-N^4-(2,2,2-trifluoro-1-phenylethyl)benzene-1,4-diamine] | 0.06 µM | 0.07 µM |
| FC(F)(F)c1cc(NC2(c3ccccc3)COC2)ccc1NCCN1CCOCC1 [SS20308-0317-01, N^1-(2-morpholinoethyl)-N^4-(3-phenyloxetan-3-yl)-2-(trifluoromethyl)benzene-1,4-diamine] | 0.32 µM | 0.57 µM |
| Fc1ccc(Nc2ccc(NCC3(CN4CCCC4)COC3)c(C(F)(F)F)c2)cc1 [SS20308-0320-01, N^4-(4-fluorophenyl)-N^1-((3-(pyrrolidin-1-ylmethyl)oxetan-3-yl)methyl)-2-(trifluoromethyl)benzene-1,4-diamine] | 0.08 µM | 0.06 µM |

Further molecules by falling IC50 [1], results first:

| IC50 [1] | IC50 [2] | Compound |
| --- | --- | --- |
| 0.05 µM | 0.27 µM | Fc1c(Nc2ccccc2)ccc2c1CCN2CCn1cncn1 [SS20308-0264-01, 1-(2-(1H-1,2,4-triazol-1-yl)ethyl)-4-fluoro-N-phenylindolin-5-amine] |
| 0.05 µM | 0.15 µM | Fc1ccc(Nc2ccc(NCC3(Cn4cncn4)COC3)c(OC(F)(F)F)c2)cc1 [SS20308-0319-01, N^1-((3-((1H-1,2,4-triazol-1-yl)methyl)oxetan-3-yl)methyl)-N^4-(4-fluorophenyl)-2-(trifluoromethoxy)benzene-1,4-diamine] |
| 0.05 µM | 0.05 µM | FC(F)(F)c1cc(Nc2ccc(Cl)cc2)ccc1NCC1(Cn2cncn2)COC1 [SS20308-0322-01, N^1-((3-((1H-1,2,4-triazol-1-yl)methyl)oxetan-3-yl)methyl)-N^4-(4-chlorophenyl)-2-(trifluoromethyl)benzene-1,4-diamine] |
| 0.04 µM | 0.07 µM | Cc1cc(Nc2ccc(Cl)c(F)c2)ccc1NCC1(Cn2cccn2)COC1 [SS20308-0327-01, N1-((3-((1H-pyrazol-1-yl)methyl)oxetan-3-yl)methyl)-N4-(4-chloro-3-fluorophenyl)-2-methylbenzene-1,4-diamine] |
| 0.03 µM | 0.07 µM | Fc1ccc(Nc2ccc(NCCCN3CCOCC3)c(C(F)(F)F)c2)cc1 [SS20308-0316-01, N^4-(4-fluorophenyl)-N^1-(3-morpholinopropyl)-2-(trifluoromethyl)benzene-1,4-diamine] |
| 0.03 µM | 0.15 µM and 0.44 µM | Cc1cc(Nc2ccc(Cl)c(F)c2)ccc1NCC1(CN2CCCC2)COC1 [SS20308-0324-01, N^4-(4-chloro-3-fluorophenyl)-2-methyl-N^1-((3-(pyrrolidin-1-ylmethyl)oxetan-3-yl)methyl)benzene-1,4-diamine] |
| 0.03 µM | 0.04 µM | FC(F)(F)C(Nc1ccc(NCCCN2CCOCC2)c(C2CCCCC2)c1)c1ccccc1 (stereo not drawn) [SS20308-0325-01, 2-cyclohexyl-N^1-(3-morpholinopropyl)-N^4-(2,2,2-trifluoro-1-phenylethyl)benzene-1,4-diamine] |
| 0.02 µM | 0.05 µM | Cc1cc(Nc2ccc(Cl)c(F)c2)ccc1NCC1(CN2CCOCC2)COC1 [SS20308-0323-01, N^4-(4-chloro-3-fluorophenyl)-2-methyl-N^1-((3-(morpholinomethyl)oxetan-3-yl)methyl) benzene-1,4-diamine] |
